{"source": "ChEMBL document CHEMBL1201862", "about": "“PubChem BioAssay data set” (2004)", "key": {"[1]": {"experiment": "control 3'UTR Renilla luciferase suppression, dose response, counter-screen for Shn3 inhibitor project, cell-based, Clone20-Shn3RL, cherry-picked (AID 624133)", "format": "functional"}, "Protein Wnt-3a": {"target": "Protein Wnt-3a (Mus musculus, UniProt P27467)", "sequence (P27467 whole entry)": "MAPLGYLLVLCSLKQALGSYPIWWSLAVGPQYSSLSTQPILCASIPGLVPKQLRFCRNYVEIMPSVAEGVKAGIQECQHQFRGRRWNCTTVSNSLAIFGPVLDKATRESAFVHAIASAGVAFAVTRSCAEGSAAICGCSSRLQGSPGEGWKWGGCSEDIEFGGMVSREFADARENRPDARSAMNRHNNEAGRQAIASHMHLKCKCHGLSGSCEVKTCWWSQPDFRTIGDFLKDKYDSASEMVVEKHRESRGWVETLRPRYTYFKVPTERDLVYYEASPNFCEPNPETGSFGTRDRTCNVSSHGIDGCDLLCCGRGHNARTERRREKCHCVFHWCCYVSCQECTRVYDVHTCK", "experiment": "Wnt3a-driven reporter signaling inhibition, dose response, selectivity assay for Gli-SUFU antagonist project, Wnt-LIGHT cells, luminescence (AID 651570);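 note: Wnt-LIGHT reporter cells stimulated with conditioned medium from Wnt3a-producing cells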", "format": "functional", "details": "read-out: IC50_Mean"}, "[2]": {"experiment": "Shn3 3'UTR reporter inhibitors, dose response, cell-based, Clone20 osteoblasts, firefly luciferase, cherry-picked (AID 624132)", "format": "functional"}, "Cytochrome P450 3A4": {"target": "Cytochrome P450 3A4 (Homo sapiens, UniProt P08684)", "sequence (P08684 whole entry)": "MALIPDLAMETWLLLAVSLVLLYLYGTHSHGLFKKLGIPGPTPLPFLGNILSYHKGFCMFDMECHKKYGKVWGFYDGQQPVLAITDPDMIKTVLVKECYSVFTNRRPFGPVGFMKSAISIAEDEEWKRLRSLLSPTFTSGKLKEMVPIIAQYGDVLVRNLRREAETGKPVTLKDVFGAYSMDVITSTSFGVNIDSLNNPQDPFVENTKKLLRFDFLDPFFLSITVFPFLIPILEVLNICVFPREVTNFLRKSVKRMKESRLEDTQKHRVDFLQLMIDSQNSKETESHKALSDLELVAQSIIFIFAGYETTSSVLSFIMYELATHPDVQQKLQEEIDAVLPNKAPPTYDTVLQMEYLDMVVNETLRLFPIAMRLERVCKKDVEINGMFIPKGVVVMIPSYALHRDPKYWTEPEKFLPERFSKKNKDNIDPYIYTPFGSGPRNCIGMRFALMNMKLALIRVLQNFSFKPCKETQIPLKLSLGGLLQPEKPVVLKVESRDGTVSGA", "details": "Potency"}, "INS1": {"tested_on": "INS1", "experiment": "beta cell apoptosis inhibitors, cytokine rescue, dose response, luminescence, retest (AID 449756);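 note: cell death triggered by IL-1 beta plus TNF-alpha plus IFN-gamma mixture; protective hits raise ATP signal compared with cytokine alone wells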", "format": "functional, cell-based", "details": "Rattus norvegicus"}, "[3]": {"target": "Luciferin 4-monooxygenase (Photinus pyralis, UniProt P08659)", "sequence (P08659 whole entry)": "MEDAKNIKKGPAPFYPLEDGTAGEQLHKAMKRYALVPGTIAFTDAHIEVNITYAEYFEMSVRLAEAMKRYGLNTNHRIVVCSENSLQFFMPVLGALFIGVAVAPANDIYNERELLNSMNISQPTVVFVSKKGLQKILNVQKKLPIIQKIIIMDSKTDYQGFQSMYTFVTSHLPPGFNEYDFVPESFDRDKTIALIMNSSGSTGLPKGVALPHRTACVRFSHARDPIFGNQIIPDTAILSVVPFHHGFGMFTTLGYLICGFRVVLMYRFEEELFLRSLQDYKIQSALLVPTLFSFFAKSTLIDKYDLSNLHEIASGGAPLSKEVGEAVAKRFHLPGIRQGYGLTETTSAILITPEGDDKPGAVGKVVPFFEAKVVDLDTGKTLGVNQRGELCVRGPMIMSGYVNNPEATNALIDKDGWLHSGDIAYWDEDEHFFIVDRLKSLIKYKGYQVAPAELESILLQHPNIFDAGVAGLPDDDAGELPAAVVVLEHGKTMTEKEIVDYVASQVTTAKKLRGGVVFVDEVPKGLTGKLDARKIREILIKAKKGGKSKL", "experiment": "firefly luciferase enzyme inhibitors, dose response, biochemical, luminescence (AID 1891)"}, "[4]": {"target": "T1, Short transient receptor potential channel 4 (Mus musculus, UniProt Q9QUQ5)", "T1 sequence (Q9QUQ5 whole entry)": "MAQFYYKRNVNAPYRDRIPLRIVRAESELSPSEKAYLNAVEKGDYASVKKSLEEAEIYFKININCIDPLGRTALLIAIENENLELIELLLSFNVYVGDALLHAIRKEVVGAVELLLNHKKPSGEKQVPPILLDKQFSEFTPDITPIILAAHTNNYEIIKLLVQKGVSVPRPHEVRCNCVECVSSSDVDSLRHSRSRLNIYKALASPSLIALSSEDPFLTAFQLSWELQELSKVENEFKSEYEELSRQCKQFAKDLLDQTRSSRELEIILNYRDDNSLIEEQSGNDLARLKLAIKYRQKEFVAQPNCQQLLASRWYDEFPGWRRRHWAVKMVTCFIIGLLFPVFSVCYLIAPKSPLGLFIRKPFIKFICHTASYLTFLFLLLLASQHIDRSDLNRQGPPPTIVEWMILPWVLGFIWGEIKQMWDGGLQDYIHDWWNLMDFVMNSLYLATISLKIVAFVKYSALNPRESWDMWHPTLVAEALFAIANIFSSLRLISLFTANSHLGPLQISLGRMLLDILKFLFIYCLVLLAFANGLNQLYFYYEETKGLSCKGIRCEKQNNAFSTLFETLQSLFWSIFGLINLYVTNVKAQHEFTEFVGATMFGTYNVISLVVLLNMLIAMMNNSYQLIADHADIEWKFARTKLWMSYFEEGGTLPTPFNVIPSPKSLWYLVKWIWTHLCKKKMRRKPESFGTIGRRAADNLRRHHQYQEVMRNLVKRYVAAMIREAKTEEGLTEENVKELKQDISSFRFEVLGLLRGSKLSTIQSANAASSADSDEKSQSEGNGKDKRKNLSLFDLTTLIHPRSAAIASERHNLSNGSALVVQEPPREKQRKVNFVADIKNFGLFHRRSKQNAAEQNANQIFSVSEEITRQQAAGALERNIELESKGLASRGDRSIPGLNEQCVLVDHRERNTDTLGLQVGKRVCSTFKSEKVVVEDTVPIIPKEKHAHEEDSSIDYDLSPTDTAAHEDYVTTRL", "experiment": "mouse TRPC4 channel inhibitors, dose response, cell-based, HEK293 TRPC4/mu-opioid, Fluo-4 calcium (AID 434942)", "format": "functional"}, "[5]": {"experiment": "Luminescence Cell-Based Dose Confirmation HTS to Identify Inhibitors of Platelet Dense Granule Release. [Related pubchem assays: 1663 (Primary HTS), 1678 (Summary of Project)]", "format": "functional"}, "HEK293 [6]": {"tested_on": "HEK293", "experiment": "NOD1 signaling inhibitors, primary screen, cell-based, luminescence, uHTS (AID 1578)", "format": "functional", "details": "Homo sapiens"}, "HEK293 [7]": {"tested_on": "HEK293", "experiment": "cells", "format": "functional, cell-based", "details": "Homo sapiens"}, "HEK293 [8]": {"tested_on": "HEK293", "experiment": "cells", "format": "functional, cell-based", "details": "Homo sapiens", "remark": "listed apart in the source"}, "HEK293 [9]": {"tested_on": "HEK293", "experiment": "NOD2 signaling inhibitors in MDP-stimulated cells, cell-based, uHTS, luminescence (AID 2001)", "format": "functional", "details": "Homo sapiens"}, "[10]": {"experiment": "Luminescence Cell-Based Dose Retest to Confirm Inhibitors of Cancer Stem Cells. [Related pubchem assays (depositor defined):AID2717, AID2721]", "format": "functional", "details": "Homo sapiens"}}, "note": "Calls of active or inactive are those of the source."}
{"smiles": "Cc1cccc(CCN2C(N(C)C)=NC[C@@H]2CC(C)C)c1", "values": [{"measurement": "AC50", "setting": "[1]", "result": "8.04 µM (active)"}, {"measurement": "IC50", "setting": "Protein Wnt-3a", "result": "9.13 µM (active)"}, {"measurement": "AC50", "setting": "[2]", "result": "1.45 µM (active)"}]}
{"smiles": "COC(C1CCCCC1)C(C)C(OCc1cccc(Br)c1)C(C)CO", "note": "(centres undefined)", "values": [{"measurement": "AC50", "setting": "Cytochrome P450 3A4", "result": "3.16 µM (inconclusive)"}]}
{"smiles": "COCCNc1nc2c(c(=O)n(C)c(=O)n2C)n1Cc1cccc(C(F)(F)F)c1", "values": [{"measurement": "IC50", "setting": "Protein Wnt-3a", "result": "5.24 µM (active)"}, {"measurement": "AC50", "setting": "INS1", "result": "6.6 µM (active)"}]}
{"smiles": "CCCCC(=O)N(c1ccc(C(=O)O)cc1)c1nc(-c2ccc(Cl)cc2)c(CC)s1", "values": [{"measurement": "EC50", "setting": "[3]", "result": "> 112 µM (not active)"}, {"measurement": "EC50", "setting": "[4]", "result": "10.6 µM (active)"}, {"measurement": "EC50", "setting": "[5]", "result": "> 112 µM (not active)"}]}
{"smiles": "CCN(CC)Cc1cc(CCNC(=O)c2ccc(Cl)cc2)ccc1O", "values": [{"measurement": "EC50", "setting": "[4]", "result": "4.73 µM (active)"}]}
{"smiles": "CC(Sc1n[nH]c2c3ccccc3nc-2n1)C(=O)N(C)C1CCCCC1", "note": "(centres undefined)", "values": [{"measurement": "EC50", "setting": "HEK293 [6]", "result": "4.74 µM (active)"}, {"measurement": "IC50", "setting": "HEK293 [7]", "result": "6.41 µM (active)"}, {"measurement": "IC50", "setting": "HEK293 [8]", "result": "12.9 µM (active)"}, {"measurement": "IC50", "setting": "HEK293 [9]", "result": "6.67 µM (active)"}, {"measurement": "AC50", "setting": "INS1", "result": "16.1 µM (active)"}]}
{"smiles": "Cn1nc(CC(=O)NCc2ccc(C(F)(F)F)cc2)c2ccccc2c1=O", "values": [{"measurement": "IC50", "setting": "Protein Wnt-3a", "result": "1.09 µM (active)"}]}
{"smiles": "Cc1nc(C2CCC3C4CCC5=CC(=O)CC[C@]5(C)C4CC[C@]23C)cs1", "note": "(some centres undefined)", "values": [{"measurement": "EC50", "setting": "HEK293 [6]", "result": "2.24 µM (active)"}, {"measurement": "AC50", "setting": "[10]", "result": "6.32 µM (active)"}, {"measurement": "IC50", "setting": "HEK293 [7]", "result": "3.42 µM (active)"}, {"measurement": "IC50", "setting": "HEK293 [8]", "result": "9.14 µM (active)"}, {"measurement": "IC50", "setting": "HEK293 [9]", "result": "3.56 µM (active)"}]}
{"smiles": "COC(=O)CC1C(C)(C)C(OC(C)=O)C2CC3=C4CC(=O)OC(c5ccoc5)[C@]4(C)CCC3[C@@]1(C)C2=O", "note": "(some centres undefined)", "values": [{"measurement": "AC50", "setting": "Cytochrome P450 3A4", "result": "1.58 µM (inconclusive)"}]}
{"smiles": "NC(=O)c1nsc(C(=O)N(Cc2ccccc2F)C(C(=O)NCC2CCCO2)c2ccc(F)cc2)c1N", "note": "(centres undefined)", "values": [{"measurement": "EC50", "setting": "[4]", "result": "0.473 µM (active)"}]}
{"smiles": "C/C(=N\\Nc1ccc(Cl)nn1)c1ccccc1O", "values": [{"measurement": "IC50", "setting": "Protein Wnt-3a", "result": "50 µM (inactive)"}]}
